The record followed here is patent publication US6441027B1, “Method of regulating the female reproductive system through angiogenesis inhibitors” (Children's Medical Center Corporation, priority 1996, dated 2002).

This experiment relates to intersite endometrium. Kind of experiment: Factor VIII microvessel density of intersite endometrium on E6. The class given is in vivo, mouse. The protocol:
To test this hypothesis, mice were treated with AGM-1470 on E1 and sacrificed at E6, a time point prior to placental formation. The uteri of the mice were examined by antibodies to Factor VIII and PCNA to determine if there was any difference in the degree of endometrial angiogenesis or the proliferative response of the decidua induced by trophoblast invasion. However, in the decidua there was a 50% decrease in the proliferation of stromal cells in the AGM-1470 treated mice as compared to control (PCNA staining/X630 field in control was 48%±3, n=4, versus 24%±5, n=4, P≦0.005 in AGM-1470 treated mice. See FIG. 4A and 4B). […]
To determine microvessel density, Carnoy's-fixed tissue sections were pretreated with 2 microgram/ml Proteinase K (Boehringer Mannheim, Mannheim, Germany) at 37° Celsius for 15 minutes before staining with a rabbit polyclonal antibody against mouse factor VIII (Dako, Carpinteria, Calif.). Positive staining was detected by incubating sequentially with a secondary antibody against rabbit conjugated to horseradish peroxidase (Dako) and diaminobenzidine tetrahydrochloride (DAB) (Dako) as a chromagen. […] Microvessel density was determined by light microscopy. Each count was expressed as the number of microvessels identified within a selected field. Ten fields per section were counted. […]

As for `CO[C@@H]1[C@H](OC(=O)NC(=O)CCl)CC[C@]2(CO2)[C@H]1[C@@]1(C)O[C@@H]1CC=C(C)C` [AGM-1470, O-chloroacetylcarbamoyl fumagillol], the “decrease in microvessel density in intersite endometrium vs control” value (treated on E1, sacrificed E6) came out at 52%. For the same compound, the “microvessel density in intersite endometrium” value (treated on E1, sacrificed E6, n=4) came to 57±13 vessels/X250 field.
